# Measurements as given in patent US6355799B1, “Substituted benzene compounds, process for their preparation, and herbicidal and defoliant compositions containing them” (ISK Americas Incorporated, priority 1997, dated 2002).
# Assays:
# Assay type in all cases: in vivo
# [1] = system: redroot pigweed (Amaranthus retroflexus, AMARE); experiment: Pre-emerge test, greenhouse herbicide activity screening; conditions: for Pre-emerge Herbicidal Activity, phytotoxicity rating (0-100), AMARE: rated 14 days after application, 0 = no damage, 100 = complete death; for phytotoxicity rating AMARE: pre-emerge, 14 days after application, scale 0-100
# Summary of the method: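 Plants grown in 10 cm pots of sandy loam mix received acetone-dissolved compounds through a moving flat-fan nozzle. Doses ranged from 15 to 1000 g ai/ha. Pre-emerge pots were seeded one day earlier, post-emerge pots 8–21 days earlier. Fourteen days on, each pot was graded 0–100 for damage.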
# [2] = system: barnyardgrass (Echinochloa crus-galli, ECHCG); experiment: as above; conditions: for Pre-emerge Herbicidal Activity, phytotoxicity rating (0-100), ECHCG: rated 14 days after application, 0 = no damage, 100 = complete death; for phytotoxicity rating ECHCG: pre-emerge, 14 days after application, scale 0-100
# Summary of the method: (§1)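 Fourteen days after spraying, crop and weed injury was graded visually from 0, no effect, to 100, every plant dead. Test substances were dissolved in acetone and applied at 15–1000 g ai/ha with a flat-fan nozzle. Application was either pre-emergence, one day after sowing, or post-emergence at the 2–3 leaf stage.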
# [3] = system: green foxtail (Setaria viridis, SETVI); experiment: as above; conditions: for Pre-emerge Herbicidal Activity, phytotoxicity rating (0-100), SETVI: rated 14 days after application, 0 = no damage, 100 = complete death; for phytotoxicity rating SETVI: pre-emerge, 14 days after application, scale 0-100
# Summary of the method: as §1
# [4] = system: ivyleaf morningglory (Ipomoea hederacea, IPOHE); experiment: as above; conditions: for Pre-emerge Herbicidal Activity, phytotoxicity rating (0-100), IPOHE: rated 14 days after application, 0 = no damage, 100 = complete death; for phytotoxicity rating IPOHE: pre-emerge, 14 days after application, scale 0-100
# Summary of the method: as §1
# [5] = system: johnsongrass (Sorghum halepense, SORHA); experiment: as above; conditions: for Pre-emerge Herbicidal Activity, phytotoxicity rating (0-100), SORHA: rated 14 days after application, 0 = no damage, 100 = complete death; for phytotoxicity rating SORHA: pre-emerge, 14 days after application, scale 0-100
# Summary of the method: as §1
# [6] = system: lambsquarters (Chenopodium album, CHEAL); experiment: as above; conditions: for Pre-emerge Herbicidal Activity, phytotoxicity rating (0-100), CHEAL: rated 14 days after application, 0 = no damage, 100 = complete death; for phytotoxicity rating CHEAL: pre-emerge, 14 days after application, scale 0-100
# Summary of the method: as §1
# [7] = system: large crabgrass (Digitaria sanguinalis, DIGSA); experiment: as above; conditions: for Pre-emerge Herbicidal Activity, phytotoxicity rating (0-100), DIGSA: rated 14 days after application, 0 = no damage, 100 = complete death; for phytotoxicity rating DIGSA: pre-emerge, 14 days after application, scale 0-100
# Summary of the method: as §1
# [8] = system: sicklepod (Cassia obtusifolia, CASOB); experiment: as above; conditions: for Pre-emerge Herbicidal Activity, phytotoxicity rating (0-100), CASOB: rated 14 days after application, 0 = no damage, 100 = complete death; for phytotoxicity rating CASOB: pre-emerge, 14 days after application, scale 0-100
# Summary of the method: as §1
# [9] = system: velvetleaf (Abutilon theophrasti, ABUTH); experiment: as above; conditions: for Pre-emerge Herbicidal Activity, phytotoxicity rating (0-100), ABUTH: rated 14 days after application, 0 = no damage, 100 = complete death; for phytotoxicity rating ABUTH: pre-emerge, 14 days after application, scale 0-100
# Summary of the method: as §1
# [10] = system: field corn (Zea mays L., var. Dekalb 535, CORN); experiment: Pre-emerge test, crop safety; conditions: for Pre-emerge phytotoxicity rating (0-100), crop damage, CORN: rated 14 days after application, 0 = no damage, 100 = complete death; for phytotoxicity rating CORN (crop damage): pre-emerge, 14 days after application, scale 0-100
# Summary of the method: (§2)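 Compounds in acetone were track-sprayed at 187 l/ha, 15–1000 g ai/ha, onto sandy loam pots. Pre-emerge seeds were sown one day before spraying, with surface watering afterwards. Post-emerge plants were at the 2–3 leaf stage and sprayed with 0.25% v/v non-ionic surfactant. Injury was rated 0–100 at 14 days.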
# [11] = system: upland rice (Oryza sp., var. Tebonnet, RICE); experiment: Pre-emerge test, crop safety; conditions: for Pre-emerge phytotoxicity rating (0-100), crop damage, RICE: rated 14 days after application, 0 = no damage, 100 = complete death; for phytotoxicity rating RICE (crop damage): pre-emerge, 14 days after application, scale 0-100
# Summary of the method: as §2
# [12] = system: barnyardgrass (Echinochloa crus-galli, ECHCG); experiment: Post-emerge test, greenhouse herbicide activity screening; conditions: post-emerge, 14 days after application, rating scale 0-100
# Summary of the method: (§3)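 Each test used a mechanized track sprayer delivering 187 l/ha of acetone solution at 15–1000 g ai/ha. Post-emerge foliage at 2–3 leaves was treated with added 0.25% v/v non-ionic surfactant and bottom-watered only. Injury was assessed on day 14, where 100 means total kill.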
# [13] = system: common ragweed (Ambrosia artemisizfolia L., AMBEL); experiment: as above; conditions: post-emerge, 14 days after application, rating scale 0-100
# Summary of the method: as §3
# [14] = system: green foxtail (Setaria viridis, SETVI); experiment: as above; conditions: post-emerge, 14 days after application, rating scale 0-100
# Summary of the method: as §3
# [15] = system: ivyleaf morningglory (Ipomoea hederacea, IPOHE); experiment: as above; conditions: post-emerge, 14 days after application, rating scale 0-100
# Summary of the method: as §3
# [16] = system: johnsongrass (Sorghum halepense, SORHA); experiment: as above; conditions: post-emerge, 14 days after application, rating scale 0-100
# Summary of the method: as §3
# [17] = system: lambsquarters (Chenopodium album, CHEAL); experiment: as above; conditions: post-emerge, 14 days after application, rating scale 0-100
# Summary of the method: as §3
# [18] = system: large crabgrass (Digitaria sanguinalis, DIGSA); experiment: as above; conditions: post-emerge, 14 days after application, rating scale 0-100
# Summary of the method: as §3
# [19] = system: redroot pigweed (Amaranthus retroflexus, AMARE); experiment: as above; conditions: post-emerge, 14 days after application, rating scale 0-100
# Summary of the method: as §3
# [20] = system: sicklepod (Cassia obtusifolia, CASOB); experiment: as above; conditions: post-emerge, 14 days after application, rating scale 0-100
# Summary of the method: as §3
# [21] = system: velvetleaf (Abutilon theophrasti, ABUTH); experiment: as above; conditions: post-emerge, 14 days after application, rating scale 0-100
# Summary of the method: as §3
# [22] = system: field corn (Zea mays L., var. Dekalb 535, CORN); experiment: Post-emerge test, crop safety; conditions: post-emerge, 14 days after application, rating scale 0-100
# Summary of the method: as §1
# [23] = system: upland rice (Oryza sp., var. Tebonnet, RICE); experiment: Post-emerge test, crop safety; conditions: post-emerge, 14 days after application, rating scale 0-100
# Summary of the method: as §1
structure (smiles),measurement,setting,value
COc1c(Cl)cc(F)c(-n2c(=O)cc(C(F)(F)F)n(C)c2=O)c1NC(=O)c1cnc2ccccc2n1 [2-105],"Pre-emerge Herbicidal Activity, phytotoxicity rating (0-100), AMARE",[1]; 63 g ai/ha,100
same,"Pre-emerge Herbicidal Activity, phytotoxicity rating (0-100), AMARE",[1]; 250 g ai/ha,100
same,"Pre-emerge Herbicidal Activity, phytotoxicity rating (0-100), ECHCG",[2]; 63 g ai/ha,20
same,"Pre-emerge Herbicidal Activity, phytotoxicity rating (0-100), ECHCG",[2]; 250 g ai/ha,100
same,"Pre-emerge Herbicidal Activity, phytotoxicity rating (0-100), SETVI",[3]; 63 g ai/ha,100
same,"Pre-emerge Herbicidal Activity, phytotoxicity rating (0-100), SETVI",[3]; 250 g ai/ha,100
same,"Pre-emerge Herbicidal Activity, phytotoxicity rating (0-100), IPOHE",[4]; 63 g ai/ha,20
same,"Pre-emerge Herbicidal Activity, phytotoxicity rating (0-100), IPOHE",[4]; 250 g ai/ha,95
same,"Pre-emerge Herbicidal Activity, phytotoxicity rating (0-100), SORHA",[5]; 63 g ai/ha,40
same,"Pre-emerge Herbicidal Activity, phytotoxicity rating (0-100), SORHA",[5]; 250 g ai/ha,95
same,"Pre-emerge Herbicidal Activity, phytotoxicity rating (0-100), CHEAL",[6]; 63 g ai/ha,100
same,"Pre-emerge Herbicidal Activity, phytotoxicity rating (0-100), CHEAL",[6]; 250 g ai/ha,100
same,"Pre-emerge Herbicidal Activity, phytotoxicity rating (0-100), DIGSA",[7]; 63 g ai/ha,90
same,"Pre-emerge Herbicidal Activity, phytotoxicity rating (0-100), DIGSA",[7]; 250 g ai/ha,100
same,"Pre-emerge Herbicidal Activity, phytotoxicity rating (0-100), CASOB",[8]; 63 g ai/ha,30
same,"Pre-emerge Herbicidal Activity, phytotoxicity rating (0-100), CASOB",[8]; 250 g ai/ha,60
same,"Pre-emerge Herbicidal Activity, phytotoxicity rating (0-100), ABUTH",[9]; 63 g ai/ha,100
same,"Pre-emerge Herbicidal Activity, phytotoxicity rating (0-100), ABUTH",[9]; 250 g ai/ha,100
same,"Pre-emerge phytotoxicity rating (0-100), crop damage, CORN",[10]; 63 g ai/ha,10
same,"Pre-emerge phytotoxicity rating (0-100), crop damage, CORN",[10]; 250 g ai/ha,10
same,"Pre-emerge phytotoxicity rating (0-100), crop damage, RICE",[11]; 63 g ai/ha,50
same,"Pre-emerge phytotoxicity rating (0-100), crop damage, RICE",[11]; 250 g ai/ha,70
same,phytotoxicity rating ECHCG,[12]; 63 g ai/ha,10
same,phytotoxicity rating ECHCG,[12]; 250 g ai/ha,30
same,phytotoxicity rating AMBEL,[13]; 63 g ai/ha,100
same,phytotoxicity rating AMBEL,[13]; 250 g ai/ha,100
same,phytotoxicity rating SETVI,[14]; 63 g ai/ha,70
same,phytotoxicity rating SETVI,[14]; 250 g ai/ha,100
same,phytotoxicity rating IPOHE,[15]; 63 g ai/ha,100
same,phytotoxicity rating IPOHE,[15]; 250 g ai/ha,100
same,phytotoxicity rating SORHA,[16]; 63 g ai/ha,0
same,phytotoxicity rating SORHA,[16]; 250 g ai/ha,30
same,phytotoxicity rating CHEAL,[17]; 63 g ai/ha,80
same,phytotoxicity rating CHEAL,[17]; 250 g ai/ha,90
same,phytotoxicity rating DIGSA,[18]; 63 g ai/ha,0
same,phytotoxicity rating DIGSA,[18]; 250 g ai/ha,10
same,phytotoxicity rating AMARE,[19]; 63 g ai/ha,100
same,phytotoxicity rating AMARE,[19]; 250 g ai/ha,100
same,phytotoxicity rating CASOB,[20]; 63 g ai/ha,80
same,phytotoxicity rating CASOB,[20]; 250 g ai/ha,80
same,phytotoxicity rating ABUTH,[21]; 63 g ai/ha,100
same,phytotoxicity rating ABUTH,[21]; 250 g ai/ha,100
same,phytotoxicity rating CORN,[22]; 63 g ai/ha,0
same,phytotoxicity rating CORN,[22]; 250 g ai/ha,10
same,phytotoxicity rating RICE,[23]; 63 g ai/ha,0
same,phytotoxicity rating RICE,[23]; 250 g ai/ha,30
COc1c(Cl)cc(F)c(-n2c(=O)cc(C(F)(F)F)n(C)c2=O)c1NC(=O)CSC(C)C [2-173],phytotoxicity rating AMARE,[1]; 63 g ai/ha,30
same,phytotoxicity rating AMARE,[1]; 250 g ai/ha,100
same,phytotoxicity rating ECHCG,[2]; 63 g ai/ha,0
same,phytotoxicity rating ECHCG,[2]; 250 g ai/ha,20
same,phytotoxicity rating SETVI,[3]; 63 g ai/ha,40
same,phytotoxicity rating SETVI,[3]; 250 g ai/ha,80
same,phytotoxicity rating IPOHE,[4]; 63 g ai/ha,0
same,phytotoxicity rating IPOHE,[4]; 250 g ai/ha,40
same,phytotoxicity rating SORHA,[5]; 63 g ai/ha,0
same,phytotoxicity rating SORHA,[5]; 250 g ai/ha,10
same,phytotoxicity rating CHEAL,[6]; 63 g ai/ha,90
same,phytotoxicity rating CHEAL,[6]; 250 g ai/ha,100
same,phytotoxicity rating DIGSA,[7]; 63 g ai/ha,30
same,phytotoxicity rating DIGSA,[7]; 250 g ai/ha,80
same,phytotoxicity rating CASOB,[8]; 63 g ai/ha,30
same,phytotoxicity rating CASOB,[8]; 250 g ai/ha,70
same,phytotoxicity rating ABUTH,[9]; 63 g ai/ha,95
same,phytotoxicity rating ABUTH,[9]; 250 g ai/ha,100
same,phytotoxicity rating CORN (crop damage),[10]; 63 g ai/ha,0
same,phytotoxicity rating CORN (crop damage),[10]; 250 g ai/ha,20
same,phytotoxicity rating RICE (crop damage),[11]; 63 g ai/ha,0
same,phytotoxicity rating RICE (crop damage),[11]; 250 g ai/ha,50
same,ECHCG phytotoxicity rating,[12]; 63 g ai/ha,0
same,ECHCG phytotoxicity rating,[12]; 250 g ai/ha,0
same,AMBEL phytotoxicity rating,[13]; 63 g ai/ha,30
same,AMBEL phytotoxicity rating,[13]; 250 g ai/ha,50
same,SETVI phytotoxicity rating,[14]; 63 g ai/ha,0
same,SETVI phytotoxicity rating,[14]; 250 g ai/ha,0
same,IPOHE phytotoxicity rating,[15]; 63 g ai/ha,100
same,IPOHE phytotoxicity rating,[15]; 250 g ai/ha,80
same,SORHA phytotoxicity rating,[16]; 63 g ai/ha,0
same,SORHA phytotoxicity rating,[16]; 250 g ai/ha,0
same,CHEAL phytotoxicity rating,[17]; 63 g ai/ha,40
same,CHEAL phytotoxicity rating,[17]; 250 g ai/ha,65
same,DIGSA phytotoxicity rating,[18]; 63 g ai/ha,0
same,DIGSA phytotoxicity rating,[18]; 250 g ai/ha,0
same,AMARE phytotoxicity rating,[19]; 63 g ai/ha,50
same,AMARE phytotoxicity rating,[19]; 250 g ai/ha,50
same,CASOB phytotoxicity rating,[20]; 63 g ai/ha,50
same,CASOB phytotoxicity rating,[20]; 250 g ai/ha,70
same,ABUTH phytotoxicity rating,[21]; 63 g ai/ha,60
same,ABUTH phytotoxicity rating,[21]; 250 g ai/ha,100
same,CORN phytotoxicity rating (crop damage),[22]; 63 g ai/ha,0
same,CORN phytotoxicity rating (crop damage),[22]; 250 g ai/ha,25
same,RICE phytotoxicity rating (crop damage),[23]; 63 g ai/ha,0
same,RICE phytotoxicity rating (crop damage),[23]; 250 g ai/ha,10
